From PubChem BioAssay AID248 (DTP/NCI, 2004)
Toxic doses and inconclusive results are not listed. Rule as the data show it: active = T/C of 150% or more; inactive = T/C below 125%.

Test system: L1210 leukemia ip in BDF1 mice, survival T/C
Test: NCI In Vivo Anticancer Drug Screen. Data for tumor model L1210 Leukemia (intraperitoneal) in B6D2F1 (BDF1) mice
Settings: endpoint: mean survival time, higher = longer survival
In short: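 Each compound was tested against a transplantable tumor grown in mice. The endpoint was survival, with treated animals benchmarked against vehicle controls as a simple ratio.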

[1] = dose: 25.0 mg/kg/injection, schedule: Q04DX003 (ip), vehicle: saline
[2] = dose: 100.0 mg/kg/injection, schedule: Q01DX009 (ip), vehicle: saline with Tween-80
[3] = dose: 200.0 mg/kg/injection, schedule: Q01DX009 (ip), vehicle: saline with Tween-80
[4] = dose: 400.0 mg/kg/injection, schedule: Q01DX009 (ip), vehicle: saline with Tween-80
[5] = dose: 100.0 mg/kg/injection, schedule: Q04DX003 (ip), vehicle: saline with Tween-80
[6] = dose: 200.0 mg/kg/injection, schedule: Q04DX003 (ip), vehicle: saline with Tween-80
[7] = dose: 100.0 mg/kg/injection, schedule: Q01DX001 (ip), vehicle: saline
[8] = dose: 50.0 mg/kg/injection, schedule: Q01DX009 (ip), vehicle: saline

Measured: T/C

O=c1cccccc1O.O=c1cccccc1O.[Cu]
inactive: dose: 1.56 mg/kg/injection, schedule: Q01DX009 (ip), vehicle: Klucel (hydroxypropylcellulose) (HPC) 97 % of control | dose: 3.12 mg/kg/injection, schedule: Q01DX009 (ip), vehicle: Klucel (hydroxypropylcellulose) (HPC) 94 % of control | dose: 6.0 mg/kg/injection, schedule: Q04DX003 (ip), vehicle: saline 94 % of control | dose: 6.25 mg/kg/injection, schedule: Q01DX009 (ip), vehicle: Klucel (hydroxypropylcellulose) (HPC) 94 % of control | dose: 12.0 mg/kg/injection, schedule: Q04DX003 (ip), vehicle: saline 95 % of control | [1] 102 % of control

COC(=O)c1ccc(Cl)c(Cl)c1
inactive: dose: 25.0 mg/kg/injection, schedule: Q01DX009 (ip), vehicle: saline with Tween-80 110 % of control | dose: 50.0 mg/kg/injection, schedule: Q01DX009 (ip), vehicle: saline with Tween-80 104 % of control | [2] 107 % of control | [3] 100 % of control | [4] 102 % of control

COc1ccc(CCOS(=O)(=O)c2ccc(C)cc2)cc1
inactive: [2] 100 % of control | [3] 97 % of control | [4] 100 % of control

Fc1ccccc1-c1nnc(-c2ccccc2)o1
inactive: dose: 100.0 mg/kg/injection, schedule: Q04DX003 (ip), vehicle: Klucel (hydroxypropylcellulose) (HPC) 98 % of control | dose: 200.0 mg/kg/injection, schedule: Q04DX003 (ip), vehicle: Klucel (hydroxypropylcellulose) (HPC) 113 % of control | dose: 400.0 mg/kg/injection, schedule: Q04DX003 (ip), vehicle: Klucel (hydroxypropylcellulose) (HPC) 103 % of control

CC(=O)OCC(I)CC(F)(F)C(F)(F)C(F)(F)F (stereo not given)
inactive: dose: 100.0 mg/kg/injection, schedule: Q01DX001 (ip), vehicle: saline with Tween-80 98 % of control | dose: 200.0 mg/kg/injection, schedule: Q01DX001 (ip), vehicle: saline with Tween-80 103 % of control | dose: 400.0 mg/kg/injection, schedule: Q01DX001 (ip), vehicle: saline with Tween-80 116 % of control

O=[N+]([O-])c1ccc(C=Nc2cc(Cl)ccc2Cl)s1
inactive: [5] 98 % of control | [6] 88 % of control

NC(N)=NCC(=O)O
inactive: dose: 75.0 mg/kg/injection, schedule: Q01DX001 (ip), vehicle: saline with Tween-80 105 % of control | dose: 150.0 mg/kg/injection, schedule: Q01DX001 (ip), vehicle: saline with Tween-80 100 % of control | dose: 300.0 mg/kg/injection, schedule: Q01DX001 (ip), vehicle: saline with Tween-80 102 % of control

NC(=O)OCc1c(O)c2c(c(O)c1COC(N)=O)C(=O)C=CC2=O
inactive: dose: 6.25 mg/kg/injection, schedule: Q01DX009 (ip), vehicle: water 94 % of control | dose: 12.5 mg/kg/injection, schedule: Q01DX009 (ip), vehicle: water 92 % of control | dose: 25.0 mg/kg/injection, schedule: Q01DX009 (ip), vehicle: water 99 % of control | dose: 50.0 mg/kg/injection, schedule: Q01DX009 (ip), vehicle: water 90 % of control | dose: 100.0 mg/kg/injection, schedule: Q01DX009 (ip), vehicle: water 95 % of control

CN(C)N=Nc1cn(C2CC(O)C(CO)O2)c(=O)[nH]c1=O (stereo not given)
inactive: dose: 100.0 mg/kg/injection, schedule: Q01DX005 (ip), vehicle: saline 95 % of control | dose: 200.0 mg/kg/injection, schedule: Q01DX005 (ip), vehicle: saline 101 % of control

ClC(Cl)=C(c1ccc(Cl)cc1)c1ccc(Cl)cc1
inactive: [7] 101 % of control | dose: 100.0 mg/kg/injection, schedule: Q04DX002 (ip), vehicle: gum acacia 114 % of control | dose: 200.0 mg/kg/injection, schedule: Q01DX001 (ip), vehicle: saline 110 % of control | dose: 200.0 mg/kg/injection, schedule: Q04DX002 (ip), vehicle: gum acacia 91 % of control | dose: 400.0 mg/kg/injection, schedule: Q01DX001 (ip), vehicle: saline 98 % of control | dose: 400.0 mg/kg/injection, schedule: Q04DX002 (ip), vehicle: gum acacia 100 % of control

N#Cc1ncc(-c2ccccc2)nc1C#N
inactive: [2] 103 % of control | [3] 100 % of control | [4] 88 % of control

CC(=O)Nc1c(Cl)c(Cl)c2c(c1Cl)Cc1cc(F)ccc1-2
inactive: dose: 62.5 mg/kg/injection, schedule: Q01DX Z (ip), vehicle: saline 97 % of control | [5] 101 % of control | dose: 125.0 mg/kg/injection, schedule: Q01DX Z (ip), vehicle: saline 95 % of control | [6] 93 % of control | dose: 250.0 mg/kg/injection, schedule: Q01DX Z (ip), vehicle: saline 101 % of control | dose: 400.0 mg/kg/injection, schedule: Q04DX003 (ip), vehicle: saline with Tween-80 95 % of control | dose: 500.0 mg/kg/injection, schedule: Q01DX Z (ip), vehicle: saline 95 % of control | dose: 650.0 mg/kg/injection, schedule: Q01DX Z (ip), vehicle: saline 96 % of control | dose: 800.0 mg/kg/injection, schedule: Q01DX Z (ip), vehicle: saline 102 % of control

CN(C)/C=N/n1cnc2c(ncn2C2OC(CO)C(O)C2O)c1=O (stereo not given)
inactive: dose: 100.0 mg/kg/injection, schedule: Q01DX003 (ip), vehicle: saline 102 % of control | dose: 200.0 mg/kg/injection, schedule: Q01DX003 (ip), vehicle: saline 94 % of control

CCC(SC(C)=O)C(=O)O (stereo not given)
inactive: [8] 96 % of control | dose: 100.0 mg/kg/injection, schedule: Q01DX009 (ip), vehicle: saline 91 % of control | dose: 100.0 mg/kg/injection, schedule: Q04DX003 (ip), vehicle: saline 89 % of control | dose: 200.0 mg/kg/injection, schedule: Q01DX009 (ip), vehicle: saline 91 % of control | dose: 200.0 mg/kg/injection, schedule: Q04DX003 (ip), vehicle: saline 96 % of control

COc1ccc(-n2c(=O)c(N=Nc3ccccc3)c(O)n(-c3ccccc3OC)c2=S)cc1
inactive: dose: 12.5 mg/kg/injection, schedule: Q01DX001 (ip), vehicle: saline with Tween-80 101 % of control | dose: 25.0 mg/kg/injection, schedule: Q01DX001 (ip), vehicle: saline with Tween-80 90 % of control | dose: 50.0 mg/kg/injection, schedule: Q01DX001 (ip), vehicle: saline with Tween-80 94 % of control

CC(N)CCc1ccccc1 (stereo not given)
inactive: dose: 10.0 mg/kg/injection, schedule: Q01DX001 (ip), vehicle: saline 105 % of control | dose: 12.5 mg/kg/injection, schedule: Q01DX009 (ip), vehicle: saline 97 % of control | dose: 12.5 mg/kg/injection, schedule: Q04DX003 (ip), vehicle: saline 102 % of control | dose: 20.0 mg/kg/injection, schedule: Q01DX001 (ip), vehicle: saline 101 % of control | dose: 25.0 mg/kg/injection, schedule: Q01DX009 (ip), vehicle: saline 95 % of control | [1] 112 % of control | dose: 40.0 mg/kg/injection, schedule: Q01DX001 (ip), vehicle: saline 95 % of control | [8] 97 % of control | dose: 50.0 mg/kg/injection, schedule: Q04DX003 (ip), vehicle: saline with Tween-80 90 % of control | dose: 50.0 mg/kg/injection, schedule: Q04DX003 (ip), vehicle: saline 104 % of control | dose: 80.0 mg/kg/injection, schedule: Q01DX001 (ip), vehicle: saline 101 % of control | [7] 100 % of control

O=C(O)c1ccccc1C(=O)NCc1ccc(Cl)cc1Cl
inactive: dose: 100.0 mg/kg/injection, schedule: Q04DX002 (ip), vehicle: Klucel (hydroxypropylcellulose) (HPC) 88 % of control | dose: 200.0 mg/kg/injection, schedule: Q04DX002 (ip), vehicle: Klucel (hydroxypropylcellulose) (HPC) 100 % of control | dose: 400.0 mg/kg/injection, schedule: Q04DX002 (ip), vehicle: Klucel (hydroxypropylcellulose) (HPC) 98 % of control
